These results are taken from patent US11608313B2, “Adamantylmethylamine derivative and use thereof as pharmaceutical” (TOHOKU UNIVERSITY, priority 2017, dated 2023).

SMILES strings stand for the structures.

Assay type in all cases: in vivo
Test [1] concerns olfactory bulbectomized mice (OBX mice). In words: Cognitive function in olfactory bulbectomized mice (Y-maze, novel object recognition and other tests). Conditions: chronic oral treatment for 2 weeks. As for the experimental part: The same experiment as in Test Example 4 was carried out using olfactory bulbectomized mice (OBX mice) as a neurodegenerative disease model. […] The OBX mice were prepared from 10-week-old DDY male mice (Nippon SLC, Hamamatsu, Japan). Olfactory bulbectomy surgery was carried out under anesthesia with pentobarbital sodium (50 mg/kg i.p.; Dainippon, Osaka, Japan). The mice were fixed on a stereotaxic apparatus to drill a 1 mm diameter hole in the skull above the olfactory bulb. The olfactory bulb was aspirated without causing damage to the prefrontal cortex. A sham group was prepared by the same procedure as that for the OBX group, without aspiration of olfactory bulb. One week was allowed for recovery from surgery, and behavioral analyses were performed on the day following the treatment with the test compound for 14 days (2 weeks).
The same model mice as described above were orally treated with a single dose of each of the test compounds (1 mg/kg), and analyzed after 1 hour by Y-maze test and novel object recognition test. The results are shown in FIGS. 22-3 and 22-4 (Y-maze test), and FIG. 22-5 (novel object recognition test).

The test system of test [2] is APP23 mice. Nature of the test: Electrophysiological test of long-term potentiation (LTP) in hippocampal slices of APP23 mice. The following applies: APP23 mice chronically treated.
Another test concerns CaMKII. In words: CaMKII activation in hippocampus of Kir6.2-deficient mice (immunoblotting). The following applies: chronic treatment. From the text: By following the same procedure as in Test Examples 4 to 7, hippocampal slices were suspended in an SDS sample buffer and analyzed by immunoblotting for GluAl (Ser-831), which is known as a molecule that is activated by activation of CaMKII and CaMKIV, to thereby investigate the intracellular mechanism of cognitive function impairment in Kir6.2-deficient mice. The results are shown in FIGS. 9-1 and 9-2 (FIG. 9-1: band images obtained by immunoblotting; FIG. 9-2: results of quantification of the signal intensity of bands). In the hippocampus of the Kir6.2-deficient mice, increased CaMKII activation was seen and no effect was found of chronic treatment with TP-014.
On the technique in general: In western blotting, separated proteins are transferred to a membrane and probed.

The test system of test [3] is Alzheimer's disease model mice (APP23 mice). Nature of the test: Cognitive function in Alzheimer's disease model mice (Test Example 4). The following applies: APP23 mice 12 month-old, 1 mg/kg orally once a day for two months. The text has this:
The test compound was orally administered in a dissolved state in a 0.5% aqueous solution of carboxymethyl cellulose (vehicle) (the same applies hereunder).

The test system of test [4] is APP23 mice. Nature of the test: Y-maze test in APP23 mice. The following applies: 1 mg/kg orally once a day for two months. As for the experimental part: FIGS. 4-1 to 4-4 show the results of behavioral analyses. FIGS. 4-1 and 4-2 show the results of analysis of attentional function in wild-type mice (C57BL/6J, Japan SLC) v.s. APP23 mice (n=5 per group) by conventional Y-maze test. […] In the Y-maze test, mice are allowed to freely walk between three arms for 8 minutes. Here, the different arms are designated as A, B and C. A mouse positioned in arm A can move to arm B or C. If the mouse moves to arm B, then the mouse may move to arm C. Such a mouse moving sequentially between arms A, B and C is regarded as a mouse giving correct answer. […] The arms to which a mouse move are recorded in the order they are chosen by the mouse, and the number of times that a mouse moves between three arms within a specified time is counted and regarded as “total arm entries”. Further, the number of correct-answers (the number of times that a mouse moving sequentially between three different arms) is counted and regarded as the number of alternation behaviors (“No. of alternations”). The percentage of “No. of alternations” relative to the number obtained by subtracting 2 from “total arm entries” is expressed as percent alternation (%) which serves as an index for normal alternation behavior (correct answer rate in spatial working memory). […]

The test system of test [5] is Kir6.2 channel-deficient mice. Nature of the test: Behavioral tests and LTP evaluation in Kir6.2 channel-deficient mice. The following applies: Kir6.2-deficient mice, chronic treatment two months. As for the experimental part:
In order to confirm that TP-014 acts to inhibit Kir6.2 channels, Kir6.2 channel-deficient mice were analyzed by the same behavioral tests as in Test Example 4 (FIGS. 8-1 and 8-2: Y-maze test; FIG. 8-3: new object recognition test; FIG. 8-4: fear conditioning test; FIGS. 8-5 to FIG. 8-7: LTP improvement evaluation; n=5 per group) to identify the action site of TP-014. The results shown in FIGS. 8-1 to 8-7 confirmed that cognitive function impairment was induced in the Kir6.2-deficient mice. […] The analysis methods were the same as in Test Examples 4 to 7. Kir6.2-deficient mice were obtained from Professor Susumu Seino, School of Medicine of Kobe University (Miki T., et al., Proc. Natl. Acad. Sci. U.S.A. 1998, 95, 10402-10406).

Test [6] has as its system Kir6.1-deficient mice (heterozygous). In words: Tail-suspension test and forced swim test in Kir6.1-deficient mice. The following applies: chronic oral treatment for 2 weeks, 1 mg/kg. The text has this: Kir6.1-deficient mice (heterozygous, n=5 per group) were used to measure immobility time by tail-suspension test (FIG. 12-1) and forced swim test (FIG. 12-2) according to the same procedure as in Test Example 11. The heterozygous mice are those with half expression of Kir6.1 channels, unlike homozygous mice (complete Kir6.1-deficient mice) (homozygous mice die of arrhythmia after birth). […] The Kir6.1-deficient mice were obtained from Professor Susumu Seino, School of Medicine of Kobe University (Mild T., et al., Nature Medicine, 2002, 8, 466-472).

With `O=C(N[C@@H](c1ccccc1)[C@H]1[C@H]2C[C@@H]3C[C@](Cl)(C2)C[C@@]1(OC(=O)C(F)(F)F)C3)C(F)(F)F` [TP-014, (1S,2R,3S,5S,7S)-5-chloro-2-((R)-phenyl(2,2,2-trifluoroacetamido)methyl)adamantan-1-yl 2,2,2-trifluoroacetate], the cognitive function impairment result in test [1] is listed as “significantly improved”. Besides, in the test on APP23 mice [2], the “LTP (percent increase in the excitability of nerve cells)” value is listed as “improved”. For the same compound, the “CaMKII activation in hippocampus” value with CaMKII is on record as “no effect”. In test [3], the “cognitive function enhancing effect” value is “significant cognitive function enhancing effect”. Also, the “attentional function (Y-maze test, percent alternation)” value in the test on APP23 mice [4] was “significantly enhanced”. Moreover, the “memory impairment and LTP attenuation” value in test [5] is reported as “not improved”. The “depression-like symptom (immobility time)” value in test [6] was “no effect”.
